Laboratory results published in patent US20040072865A1, “Aryl piperidine derivatives as inducers of ldl-receptor expression” (priority 2003, published 2004).
Read-outs that look alike come from different tables or passages of the source.

Assays:
fat-fed hamsters = test: Oral administration to fat-fed hamsters, reduction in VLDL/LDL cholesterol and TG plasmatic levels; format: in vivo, hamster; conditions: for ED50: Mesocricetus auratus, 72 h, fat-fed hamsters, oral, once a day for 3 days, reductions in VLDL/LDL cholesterol and TG plasmatic levels, read-out: In vivo (ED50)
Procedure: The in vivo profile of the compounds is evaluated by oral administration of the compounds of the invention to fat-fed hamsters. Measurements of VLDL/LDL cholesterol and triglycerides upon treatment allow to determine the activity.
Compounds were prepared for oral administration by milling with 0.5% hydroxypropylmethylcellulose and 5% Tween 80. Hamsters were fed for 2 weeks with a diet containing 0.2% of cholesterol and 10% of coconut oil. Then compounds were administrated once a day for 3 days, from 20 to 0.2 mg/kg. Plasma lipid levels including total cholesterol, VLDL/LDL cholesterol, VLDL/LDL triglycerides and HDL-cholesterol were determinated after ultracentrifugation (density 1.063 g/ml to separate VLDL/LDL fraction and HDL fraction) using the Biomerieux erizymatic kit. Reductions in VLDL/LDL cholesterol and TG plasmatic levels were calculated taking solvant treated animals as control and ED50 of each compound was determined.

LDL-r promoter = LDL-r promoter luciferase reporter gene assay in stably transfected HepG2 cells; format: cell-based, human; conditions: read-out: In vitro (IC50)

| melting point [°C] | Structure (SMILES) | further results |
| --- | --- | --- |
| 70 | Cc1ccc(C2CCN(CCCCNC(=O)c3ccc(-c4ccc(C#N)cc4)cc3)CC2)c(OP(=O)(O)O)c1 |  |
| 184 | Cc1ccc(C2CCN(CCCCNC(=O)c3ccc(-c4ccc(C#N)cc4)cc3)CC2)c(O)c1 [Example 20, 4′-Cyano-biphenyl-4-carboxylic Acid {4-[4-(2-hydroxy-4-methyl-phenyl)-piperidin-1-yl]-butyl}-amide] |  |
| 128 to 130 | CC(=O)Oc1cc(C)ccc1C1CCN(CCCCNC(=O)c2ccc(-c3ccc(C#N)cc3)cc2)CC1 [Example 21, Acetic Acid 2-(1-{4-[(4′-cyano-biphenyl-4-carbonyl)-amino]-butyl}-piperidin-4-yl)-5-methyl-phenyl Ester] |  |

The next lines start with the compound.

| Structure (SMILES) | melting point [°C] | further results |
| --- | --- | --- |
| CCOP(=O)(OCC)Oc1cc(C)ccc1C1CCN(CCCCNC(=O)c2ccc(NC(=O)c3ccc(Cl)cc3)cc2)CC1 [Example 3, Phosphoric Acid 2-(1-{4-[4-(4-chloro-benzoylamino)-benzoylamino]-butyl}-piperidin-4-yl)-5-methyl-phenyl Ester Diethyl Ester] | 230 | ED50 (fat-fed hamsters): 5 mg/kg; IC50 (LDL-r promoter; Homo sapiens, HepG2 cells with LDL-r promoter-luciferase construct, 24 hours incubation, induction of luciferase activity): 30 nM |
| CCc1ccc(C2CCN(CCCCNC(=O)c3ccc(NC(=O)c4ccc(Cl)cc4)cc3)CC2)c(OC(C)=O)c1 [Example 5, Acetic Acid 2-(1-{4-[4-(4-chloro-benzoylamino)-benzoylamino]-butyl}-piperidin-4-yl)-5-ethyl-phenyl Ester] | 192 to 194 |  |
| CCOP(=O)(OCC)Oc1cc(CC)ccc1C1CCN(CCCCNC(=O)c2ccc(NC(=O)c3ccc(Cl)cc3)cc2)CC1 | 158 to 160 |  |
| Cc1ccc(C2CCN(CCCCNC(=O)c3ccc(NC(=O)c4ccc(Cl)cc4)cc3)CC2)c(O)c1.Cl [Example 1, 4-(4-chloro-benzoylamino)-N-{4-[4-(5-methyl-2-piperidinyl-phenol)]-butyl}-benzamide Hydrochloride] |  | In vivo (ED50) (fat-fed hamsters; hamster, in vivo, po): 10 to 15 mg/kg; IC50 (LDL-r promoter): 30 nM |
| CC(=O)Oc1cc(C)ccc1C1CCN(CCCCNC(=O)c2ccc(NC(=O)c3ccc(Cl)cc3)cc2)CC1 [Example 2, Acetic Acid 2-(1-{4-[4-(4-chloro-benzoylamino)-benzoylamino]-butyl}-piperidin-4-yl)-5-methyl-phenyl Ester] | 210 | ED50 (fat-fed hamsters): 5 mg/kg |
| CCc1ccc(C2CCN(CCCCNC(=O)c3ccc(-c4ccc(C#N)cc4)cc3)CC2)c(O)c1 [Example 6, 4′-Cyano-biphenyl-4-carboxylic Acid {4-[4-(2-hydroxy-4-ethyl-phenyl)-piperidin-1-yl]-butyl}-amide] | 252 |  |
